Experimental data reported in ChEMBL document CHEMBL1131296 (J Med Chem, 1998).

Columns and labels:
[1] = target: T1, 5-hydroxytryptamine receptor 1A (Homo sapiens, UniProt P08908); assay: Binding affinity at human cloned 5-hydroxytryptamine 1A receptor expressed in HeLa cells by [3H]8-hydroxy-2-(di-n-propylamino)tetraline displacement.; type: cell-based
T1 sequence (P08908 whole entry): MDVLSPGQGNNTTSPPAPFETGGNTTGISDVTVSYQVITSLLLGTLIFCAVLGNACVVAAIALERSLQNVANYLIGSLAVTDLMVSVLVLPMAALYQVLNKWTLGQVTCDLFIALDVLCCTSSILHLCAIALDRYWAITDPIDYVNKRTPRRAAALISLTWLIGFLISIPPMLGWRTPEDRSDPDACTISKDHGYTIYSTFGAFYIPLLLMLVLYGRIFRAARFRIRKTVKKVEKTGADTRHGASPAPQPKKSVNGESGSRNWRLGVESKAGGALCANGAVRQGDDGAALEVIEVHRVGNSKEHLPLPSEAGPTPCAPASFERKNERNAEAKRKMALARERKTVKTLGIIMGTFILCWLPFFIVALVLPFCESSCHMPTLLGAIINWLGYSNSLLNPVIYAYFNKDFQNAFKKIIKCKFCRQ

[2] = target: T2, Adrenergic receptor alpha-2 (Rattus norvegicus, UniProt P22086+P19328+P22909); assay: Binding affinity at native Alpha-2 adrenergic receptor in rat cerebral cortex by [3H]rauwolscine displacement.; type: tissue-based
T2 sequence (P22086 whole entry): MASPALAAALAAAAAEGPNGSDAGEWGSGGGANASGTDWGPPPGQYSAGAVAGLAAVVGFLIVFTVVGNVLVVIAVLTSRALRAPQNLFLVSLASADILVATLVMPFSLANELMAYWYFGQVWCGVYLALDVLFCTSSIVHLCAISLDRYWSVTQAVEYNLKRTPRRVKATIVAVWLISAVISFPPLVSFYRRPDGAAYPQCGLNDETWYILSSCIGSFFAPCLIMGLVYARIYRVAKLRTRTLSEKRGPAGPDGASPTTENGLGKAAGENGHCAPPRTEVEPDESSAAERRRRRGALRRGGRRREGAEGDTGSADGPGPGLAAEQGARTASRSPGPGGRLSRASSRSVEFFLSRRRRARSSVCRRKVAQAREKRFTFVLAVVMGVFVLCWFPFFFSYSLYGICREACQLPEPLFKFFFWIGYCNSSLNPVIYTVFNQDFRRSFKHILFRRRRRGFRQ
T2 sequence (P19328 whole entry): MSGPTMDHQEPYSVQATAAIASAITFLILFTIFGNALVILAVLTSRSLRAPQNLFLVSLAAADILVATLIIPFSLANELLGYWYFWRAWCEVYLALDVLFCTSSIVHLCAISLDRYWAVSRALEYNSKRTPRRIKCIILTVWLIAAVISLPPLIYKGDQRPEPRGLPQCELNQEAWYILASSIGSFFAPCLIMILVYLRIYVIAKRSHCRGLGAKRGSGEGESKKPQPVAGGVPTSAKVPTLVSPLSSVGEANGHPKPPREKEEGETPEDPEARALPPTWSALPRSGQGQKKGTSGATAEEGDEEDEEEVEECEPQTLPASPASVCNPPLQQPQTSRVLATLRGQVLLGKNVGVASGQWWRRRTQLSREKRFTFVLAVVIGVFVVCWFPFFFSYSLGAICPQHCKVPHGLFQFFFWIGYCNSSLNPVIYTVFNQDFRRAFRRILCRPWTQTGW
T2 sequence (P22909 whole entry): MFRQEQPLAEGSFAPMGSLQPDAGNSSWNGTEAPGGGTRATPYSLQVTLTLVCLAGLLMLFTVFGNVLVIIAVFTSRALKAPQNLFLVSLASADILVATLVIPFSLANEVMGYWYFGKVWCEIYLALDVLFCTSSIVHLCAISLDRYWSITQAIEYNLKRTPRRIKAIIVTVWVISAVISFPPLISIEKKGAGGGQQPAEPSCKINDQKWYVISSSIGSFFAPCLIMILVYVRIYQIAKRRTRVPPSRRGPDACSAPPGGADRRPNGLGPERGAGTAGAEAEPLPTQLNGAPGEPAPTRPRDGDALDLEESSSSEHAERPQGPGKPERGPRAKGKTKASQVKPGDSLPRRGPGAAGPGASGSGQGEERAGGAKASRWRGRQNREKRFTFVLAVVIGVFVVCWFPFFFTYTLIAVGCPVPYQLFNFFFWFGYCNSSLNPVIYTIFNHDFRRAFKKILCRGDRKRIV

Ki [1]: 741 nM
Log Ki [2]: -7.72
Structure (SMILES): COc1cc2nc(N(C)CCCCCCN(C)C(=O)c3cccc(CN(C)C)c3)nc(N)c2cc1OC
